Test system: C. elegans host defense pathway genes
Experiment: nanoString expression of 115 immune- and stress-responsive genes
Details: 100 μM LK molecules, 16 h
Procedure: The ratio of MIC to EC was determined for each of the 69 compounds.
Analysis of the expression of 115 immune- and stress-responsive genes using nanoString technology. Download Table S1, XLSX file, 0.02 MB.
For nanoString-based (nanoString Technologies, Seattle, WA) experiments, 2,000 wild-type, young adult worms were exposed to 100 μM LK molecules or DMSO control in S Basal medium in 6-well plates for 16 h. RNA purification and gene expression analysis were performed according to nanoString guidelines. Two biological replicates were tested for each condition.

## O=c1cc(CNc2ccc(Br)cc2)nc2sccn12 [LK56]
  B0024.4 expression, induction: 2.13 fold
  C02B4.2 nhr-17 expression, induction: 1.97 fold
  C06B3.7 expression, induction: 1.14 fold
  C07G3.2 irg-1 expression, induction: 1.40 fold
  C12C8.1 hsp-70 expression, induction: 1.04 fold
  C15F1.7 sod-1 expression, induction: 2.09 fold
  C29F7.2 expression, induction: 14.61 fold
  C31A11.5 oac-6 expression, induction: 2.72 fold
  C32D5.12 expression, induction: 1.17 fold
  C32H11.1 expression, induction: 8.05 fold
  C32H11.3 expression, induction: 1.05 fold
  C34G6.4 pgp-2 expression, induction: 1.72 fold
  C37C3.10 expression, induction: 3.56 fold
  C37H5.8 hsp-6 expression, induction: 1.45 fold
  C49G7.5 irg-2 expression, induction: 2.13 fold
  F08F8.5 numr-1 expression, induction: 3.14 fold
  F08H9.4 expression, induction: 1.04 fold
  F14F9.3 expression, induction: 1.84 fold
  F22B5.4 expression, induction: 2.10 fold
  F22H10.2 expression, induction: 1.87 fold
  F26A3.4 expression, induction: 1.98 fold
  F35E8.11 cdr-1 expression, induction: 47.99 fold
  F35G2.4 phy-2 expression, induction: 1.43 fold
  F37B12.2 gcs-1 expression, induction: 1.20 fold
  F43E2.8 hsp-4 expression, induction: 1.17 fold
  F44E5.5 expression, induction: 1.42 fold
  F49F1.6 expression, induction: 1.76 fold
  F49F1.7 expression, induction: 4.06 fold
  F49H6.13 expression, induction: 1.42 fold
  F54B8.4 expression, induction: 3.28 fold
  F55G11.2 expression, induction: 2.09 fold
  F59A7.1 clec-206 expression, induction: 12.55 fold
  F59B10.4 expression, induction: 1.53 fold
  H12D21.1 nspa-1 expression, induction: 2.13 fold
  H23N18.1 ugt-13 expression, induction: 4.36 fold
  H23N18.3 ugt-8 expression, induction: 20.66 fold
  K05B2.4 expression, induction: 2.91 fold
  K08F4.7 gst-4 expression, induction: 1.69 fold
  K09A9.1 nipi-3 expression, induction: 2.25 fold
  K10D11.2 expression, induction: 1.72 fold
  K10G4.3 expression, induction: 1.36 fold
  R03D7.6 gst-5 expression, induction: 23.60 fold
  R08H2.1 dhs-23 expression, induction: 182.18 fold
  R10E8.3 expression, induction: 1.01 fold
  T19D12.3 expression, induction: 2.00 fold
  T19H12.1 ugt-9 expression, induction: 6.54 fold
  T21E8.1 pgp-6 expression, induction: 0.89 fold
  T22B7.3 expression, induction: 1.38 fold
  T24C4.4 expression, induction: 1.93 fold
  T24E12.5 expression, induction: 2.19 fold
  T27E4.3 hsp-16.48 expression, induction: 1.38 fold
  T27E4.8 hsp-16.1 expression, induction: 1.30 fold
  T27F6.8 expression, induction: 2.98 fold
  T28C12.4 expression, induction: 7.67 fold
  W02D9.10 expression, induction: 2.27 fold
  Y22D7AL.5 hsp-60 expression, induction: 1.56 fold
  Y38E10A.15 nspe-7 expression, induction: 0.87 fold
  Y46H3A.2 hsp-16.41 expression, induction: 1.11 fold
  Y46H3A.3 hsp-16.2 expression, induction: 1.21 fold
  Y56A3A.33 expression, induction: 2.67 fold
  Y58A7A.5 expression, induction: 1.53 fold
  ZC376.7 atfs-1 expression, induction: 1.86 fold
  ZC443.6 ugt-16 expression, induction: 27.68 fold
  ZK697.6 gst-21 expression, induction: 8.40 fold

Source: paper PMC7845594, “Novel Immune Modulators Enhance Caenorhabditis elegans Resistance to Multiple Pathogens” (mSphere, 2021)
